In patent US20260132132A1, “3A,4,5,6-TETRAHYDRO-1 H-PYRAZOLO[3,4-C]PYRIDIN-7(7AH)-ONE DERIVATIVES AS FACTOR XIIA INHIBITORS” (KALVISTA PHARMACEUTICALS LIMITED, priority 2022, published 2026):

What was measured:
FXa = FXa (Homo sapiens, UniProt P00742); test: Related protease inhibition: FXa, fluorogenic substrate; format: biochemical; conditions: fluorogenic substrate at Km, 25° C.; H1-H3 = % activity at 40 μM
Procedure: Human serine protease enzyme Plasma Kallikrein, KLK1, FXa, Plasmin, Thrombin and Trypsin were assayed for enzymatic activity using an appropriate fluorogenic substrate at Km concentration, FXIa at fixed substrate concentration of 100 μM and various concentrations of the test compound.

[1] = target: T1, Human Factor XIIa (hFXIIa) (Homo sapiens, UniProt P00748); test: Determination of Human Factor XIIa (hFXIIa) inhibition, fluorogenic substrate IC50 assay; format: biochemical; conditions: fluorogenic substrate H-DPro-Phe-Arg-AFC at Km, 25° C., read-out: Human FXIIa IC50
T1 construct: purchased Enzyme Research Laboratories
T1 sequence (P00748 373-615 limits assumed): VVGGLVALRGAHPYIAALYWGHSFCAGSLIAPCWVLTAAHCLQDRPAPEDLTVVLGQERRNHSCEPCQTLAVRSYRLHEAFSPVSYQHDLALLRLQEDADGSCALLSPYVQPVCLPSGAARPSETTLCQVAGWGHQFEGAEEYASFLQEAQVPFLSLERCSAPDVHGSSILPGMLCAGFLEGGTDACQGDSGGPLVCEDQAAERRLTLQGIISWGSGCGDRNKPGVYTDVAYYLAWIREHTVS
T1 sequence (P00748 20-372 partner limits assumed): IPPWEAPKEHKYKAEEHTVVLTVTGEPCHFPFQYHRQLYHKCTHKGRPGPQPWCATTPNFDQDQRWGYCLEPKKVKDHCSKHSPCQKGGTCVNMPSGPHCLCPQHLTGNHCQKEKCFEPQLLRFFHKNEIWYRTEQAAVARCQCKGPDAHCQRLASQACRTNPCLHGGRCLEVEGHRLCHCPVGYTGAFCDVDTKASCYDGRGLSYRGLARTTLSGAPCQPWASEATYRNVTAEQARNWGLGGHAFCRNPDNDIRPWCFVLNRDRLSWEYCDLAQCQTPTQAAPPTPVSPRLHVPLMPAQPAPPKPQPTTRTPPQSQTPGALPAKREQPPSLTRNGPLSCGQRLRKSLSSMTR
Procedure: Determination of Human Factor XIIa (hFXIIa) inhibition
The Km for the cleavage of the substrate by hFXIIa was determined by standard transformation of the Michaelis-Menten equation, with subsequent inhibition assays performed at substrate Km concentration.

Sequence of FXa (P00742 235-488 limits assumed): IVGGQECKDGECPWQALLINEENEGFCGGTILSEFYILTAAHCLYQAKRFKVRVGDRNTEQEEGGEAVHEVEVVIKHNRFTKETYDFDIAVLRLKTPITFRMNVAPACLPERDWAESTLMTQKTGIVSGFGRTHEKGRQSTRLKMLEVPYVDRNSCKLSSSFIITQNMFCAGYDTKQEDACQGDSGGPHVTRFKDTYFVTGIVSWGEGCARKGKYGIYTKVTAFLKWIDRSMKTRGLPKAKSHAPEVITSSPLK
Sequence of FXa (P00742 41-179 partner limits assumed): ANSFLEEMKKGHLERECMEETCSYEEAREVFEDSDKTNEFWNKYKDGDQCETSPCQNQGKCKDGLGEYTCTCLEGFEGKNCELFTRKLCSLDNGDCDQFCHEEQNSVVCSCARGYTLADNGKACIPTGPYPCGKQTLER

Row | IC50 (FXa) [nM] | IC50 [1] [nM] | SMILES
1 | 1000 to 3000 | 10 to 100 | Cc1cc(CNC(=O)c2nn(-c3cccc(Cl)c3)c3c2CCN(c2ccc4c(c2)C(=O)N(CC(N)=O)CCO4)C3=O)nn1C [Example 1393, 6-(4-(2-amino-2-oxoethyl)-5-oxo-2,3,4,5-tetrahydrobenzo[f][1,4]oxazepin-7-yl)-1-(3-chlorophenyl)-N-((1,5-dimethyl-1H-pyrazol-3-yl)methyl)-7-oxo-4,5,6,7-tetrahydro-1H-pyrazolo[3,4-c]pyridine-3-carboxamide]
2 | > 40000 | 1000 to 3000 | CCNC(=O)c1nn(-c2cccc(Cl)c2)c2c1CCN(c1ccc(OC)c(N3CCCC3=O)c1)C2=O [Example 1401, 1-(3-chlorophenyl)-N-ethyl-6-(4-methoxy-3-(2-oxopyrrolidin-1-yl)phenyl)-7-oxo-4,5,6,7-tetrahydro-1H-pyrazolo[3,4-c]pyridine-3-carboxamide]
3 | > 40000 | 3000 to 10000 | CCNC(=O)c1nn(-c2cccc(Cl)c2)c2c1CCN(c1ccc3c(c1)C(=O)N(CCO)[C@H](C)CO3)C2=O [Example 1392, (R)-1-(3-chlorophenyl)-N-ethyl-6-(4-(2-hydroxyethyl)-3-methyl-5-oxo-2,3,4,5-tetrahydrobenzo[f][1,4]oxazepin-7-yl)-7-oxo-4,5,6,7-tetrahydro-1H-pyrazolo[3,4-c]pyridine-3-carboxamide]

More lines, now with the values behind:

Row | SMILES | IC50 (FXa) [nM] | IC50 [1] [nM]
4 | CCN1Cc2cc(N3CCc4c(C(=O)NCc5cnccc5C)nn(-c5cccc(Cl)c5)c4C3=O)ccc2[C@@H](C)C1 [Example 1158, (R)-1-(3-chlorophenyl)-6-(2-ethyl-4-methyl-1,2,3,4-tetrahydroisoquinolin-7-yl)-N-((4-methylpyridin-3-yl)methyl)-7-oxo-4,5,6,7-tetrahydro-1H-pyrazolo[3,4-c]pyridine-3-carboxamide] | 10000 to 40000 | 10 to 100
5 | Cc1cc(CNC(=O)c2nn(-c3cccc(Cl)c3)c3c2CCN(c2ccc4c(c2)CN(CCO)CC4)C3=O)[nH]n1 [Example 1077, 1-(3-chlorophenyl)-6-(2-(2-hydroxyethyl)-1,2,3,4-tetrahydroisoquinolin-7-yl)-N-((3-methyl-1H-pyrazol-5-yl)methyl)-7-oxo-4,5,6,7-tetrahydro-1H-pyrazolo[3,4-c]pyridine-3-carboxamide] | 3000 to 10000 | 10 to 100
6 | Cc1cc(CNC(=O)c2nn(-c3cccc(Cl)c3)c3c2CCN(c2ccc4c(c2)C(=O)N(CCO)[C@@H](C)CO4)C3=O)n[nH]1 [Example 1380, (S)-1-(3-chlorophenyl)-6-(4-(2-hydroxyethyl)-3-methyl-5-oxo-2,3,4,5-tetrahydrobenzo[f][1,4]oxazepin-7-yl)-N-((5-methyl-1H-pyrazol-3-yl)methyl)-7-oxo-4,5,6,7-tetrahydro-1H-pyrazolo[3,4-c]pyridine-3-carboxamide] | 10000 to 40000 | 300 to 1000
7 | Cc1cnnc(CNC(=O)c2nn(-c3cccc(Cl)c3)c3c2CCN(c2ccc4c(c2)C(=O)N(C)CC4)C3=O)c1 [Example 1282, 1-(3-chlorophenyl)-6-(2-methyl-1-oxo-1,2,3,4-tetrahydroisoquinolin-7-yl)-N-((5-methylpyridazin-3-yl)methyl)-7-oxo-4,5,6,7-tetrahydro-1H-pyrazolo[3,4-c]pyridine-3-carboxamide] | > 40000 | 300 to 1000
8 | O=C(NCc1ccnnc1)c1nn(-c2cccc(Cl)c2)c2c1CCN(c1ccc3c(c1)CN(CCO)CC3)C2=O [Example 1218, 1-(3-chlorophenyl)-6-(2-(2-hydroxyethyl)-1,2,3,4-tetrahydroisoquinolin-7-yl)-7-oxo-N-(pyridazin-4-ylmethyl)-4,5,6,7-tetrahydro-1H-pyrazolo[3,4-c]pyridine-3-carboxamide] | > 40000 | 100 to 300
9 | CCN1CCc2ccc(N3CCc4c(C(=O)NCC5CC5)nn(-c5cccc(Cl)c5)c4C3=O)cc2C1 [Example 1031, 1-(3-chlorophenyl)-N-(cyclopropylmethyl)-6-(2-ethyl-1,2,3,4-tetrahydroisoquinolin-7-yl)-7-oxo-4,5,6,7-tetrahydro-1H-pyrazolo[3,4-c]pyridine-3-carboxamide] | 10000 to 40000 | 100 to 300
